Holding throughout (assay type): cell-based
For assay [1], the system named is XBP1(u)-luciferase splicing reporter in HepG2 hepatoma cells. Nature of the assay: HepG2 XBP1 reporter assay (XBP1(u)-Luc). To be noted: Homo sapiens; for IC50: 6 h, six hours after addition of compound; for EC50: 6 hours after compound addition, Table 3, read-out: XBP1-luc HepG2 1 EC50.
Assay [2] concerns NCI-H929 (Multiple myeloma cells). Nature of the assay: Cell viability (ATPLite) in NCI-H929. As to conditions: Homo sapiens, 96 hours. How it is done: Cells were removed from liquid nitrogen storage, thawed and expanded in appropriate growth media. Once expanded, cells were seeded in 384-well tissue culture treated plates at 500 cells per well. After 24 hours, cells were treated for either 0 hours or treated for 96 hours with a testing compound (at the concentrations of 100 nM and 2 uM). At the end of either 0 hours or 96 hours, cell status was analyzed using ATPLite (Perkin Elmer) to assess the biological response of cells to the testing compound.

In assay [3] the test system is β-catenin-TCF-mediated reporter transcription activity in Colo 205 cells. Nature of the assay: Colo 205 reporter assay (TCF/LEF promoter-driven firefly luciferase). To be noted: Homo sapiens; Colo 205 TCF/LEF luciferase reporter, 5 hours after compound addition, 384 well; read-out: Colo205 IC50.

Bounds are passed on as bounds.

In the case of `Cc1cc(N2CCCOC[C@@H]2c2ccc(OCS(C)(=O)=O)cc2Cl)nc(N)n1` [D-1], the IC50 in assay [1] was 0.6 to 2 µM; in assay [2], at least 25 µM.
Consider `Cc1cc(N2CCCOC[C@H]2c2ccc(OCS(C)(=O)=O)cc2Cl)nc(N)n1` [D-2], for which the IC50 in assay [1] was below 0.6 µM; in assay [2], below 1 µM.
For the compound `Cc1cc(N2CCCOC[C@@H]2c2ccc(S(=O)(=O)C3CCC3)cc2Cl)nc(N)n1` [D-3], the results for the IC50 in assay [1] and in assay [2] were 0.6 to 2 µM and at least 25 µM, respectively.
The matching figures for `COc1cc(F)c(F)cc1[C@H]1COCCCN1c1cc(C)nc(N)n1` [D-4]: below 0.6 µM and at least 25 µM.
As to `COc1cc(F)c(F)cc1[C@@H]1COCCCN1c1cc(C)nc(N)n1` [D-5], the IC50 in assay [1] was 0.6 to 2 µM; in assay [2] it was 1 to 10 µM.
The corresponding values for `Cc1cc(N2CCCOC[C@@H]2c2ccc(NC(=O)CCO)cc2Cl)nc(N)n1` [D-6] are 0.6 to 2 µM and 1 to 10 µM.
The corresponding values for `Cc1cc(N2CCCOC[C@H]2c2ccc(NC(=O)CCO)cc2Cl)nc(N)n1` [D-7] are 0.6 to 2 µM and below 1 µM.
Turning to `Cc1cc(N2CCCOC[C@@H]2c2ccc(NC(=O)C(F)F)cc2Cl)nc(N)n1` [D-8], the IC50 was 0.6 to 2 µM in assay [1] and at least 25 µM in assay [2].
The matching figures for `Cc1cc(N2CCCOC[C@@H]2c2cc3c(cc2Cl)NCCC3)nc(N)n1` [D-9]: below 0.6 µM and below 1 µM.
The corresponding values for `Cc1cc(N2CCCOC[C@@H]2c2cc(N)c(C(F)(F)F)cc2Cl)nc(N)n1` [D-10] are below 0.6 µM and below 1 µM.
The corresponding values for `Cc1cc(N2CCCOCC2c2cc(OC(F)F)c(Cl)cc2Cl)nc(N)n1` [D-11] are 2 to 5 µM and 10 to 25 µM.
For `CCC(=O)Nc1cc(Cl)c(C2COCCCN2c2cc(C)nc(N)n2)cc1C` [D-12], the figures for the IC50 in assay [1] and in assay [2] were 0.6 to 2 µM and 1 to 10 µM, respectively.
The matching figures for `Cc1cc(N2CCCOCC2c2cc(C)c(N3CCC(C)(O)CC3)cc2Cl)nc(N)n1` [D-13]: 0.6 to 2 µM and at least 25 µM.
In the case of `Cc1cc(N2CCCOC[C@@H]2c2cc3c(cc2Cl)N(C)CC3)nc(N)n1` [D-14], the values for the IC50 in assay [1] and in assay [2] were below 0.6 µM and below 1 µM, respectively.
As for `COc1cc(C2COCCCN2c2cc(C)nc(N)n2)c(Cl)cc1N1CCCC1` [D-17], the IC50 in assay [1] lay within 0.6 to 2 µM; in assay [2], 1 to 10 µM.
`COc1cc(C2COCCCN2c2cc(C)nc(N)n2)c(Cl)cc1OCCCC#N` [D-18]: the results for the IC50 in assay [1] and in assay [2] were 0.6 to 2 µM and 1 to 10 µM, respectively.
In the case of `COc1cc(C2COCCCN2c2cc(C)nc(N)n2)c(Cl)cc1N1CCOCC1` [D-19], the IC50 in assay [1] was in the range of 0.6 to 2 µM; in assay [2] it was 1 to 10 µM.
With `Cc1cc(N2CCCOC[C@@H]2c2cc(O)c(C)cc2Cl)nc(N)n1` [D-20], the IC50 in assay [1] was below 0.6 µM; in assay [2], below 1 µM.
`CCOc1cc(C2COCCCN2c2cc(C)nc(N)n2)c(Cl)cc1O` [D-21]: the IC50 in assay [1] was below 0.6 µM; in assay [2], 1 to 10 µM.
Turning to `Cc1cc(N2CCCOC[C@@H]2c2ccc(CS(C)(=O)=O)cc2OC(F)F)nc(N)n1` [D-22], the results for the IC50 in assay [1] and in assay [2] were below 0.6 µM and below 1 µM, respectively.
The corresponding values for `Cc1cc(N2CCCOCC2c2cc(O)c(C(=O)O)cc2Cl)nc(N)n1` [D-23] are below 0.6 µM and at least 25 µM.
The matching figures for `COc1cc(C2COCCCN2c2cc(C)nc(N)n2)c(Cl)cc1OCC(=O)N1CCCCC1` [D-24]: below 0.6 µM and at least 25 µM.
The matching figures for `CNc1cc(Cl)c([C@@H]2COCCCN2c2cc(C)nc(N)n2)cc1C` [D-25]: below 0.6 µM and at least 25 µM.
Regarding `CNc1cc(Cl)c([C@H]2COCCCN2c2cc(C)nc(N)n2)cc1C` [D-26], the results for the IC50 in assay [1] and in assay [2] were below 0.6 µM and below 1 µM, respectively.
For `Cc1cc(N2CCCOC[C@H]2c2cc3c(cc2Cl)CCN3C)nc(N)n1` [D-27], the IC50 in assay [1] was below 0.6 µM; in assay [2], 10 to 25 µM.
With `Cc1cc(N2CCCOC[C@@H]2c2cc3c(cc2Cl)CCN3C)nc(N)n1` [D-28], the IC50 in assay [1] is below 0.6 µM; in assay [2], below 1 µM.
The corresponding values for `Cc1cc(N2CCCOC[C@H]2c2ccc(N)cc2Cl)nc(N)n1` [D-29] are below 0.6 µM and at least 25 µM.
The matching figures for `Cc1cc(N2CCCOC[C@@H]2c2ccc(N)cc2Cl)nc(N)n1` [D-30]: below 0.6 µM and below 1 µM.
The corresponding values for `Cc1cc(N2CCCOC[C@@H]2c2cc3c(cc2Cl)OCC(C)(C)CO3)nc(N)n1` [D-31] are below 0.6 µM and below 1 µM.
Take `Cc1cc(N2CCCOCC2c2ccc(CS(C)(=O)=O)nc2F)nc(N)n1` [D-33]: the IC50 in assay [1] is 2 to 5 µM; in assay [2], at least 25 µM.
For `CCOc1cc([C@H]2COCCCN2c2cc(C)nc(N)n2)c(Cl)cc1OC` [D-34], the values for the IC50 in assay [1] and in assay [2] were below 0.6 µM and below 1 µM, respectively.
The corresponding values for `CCOC(=O)Cc1cc(C2COCCCN2c2cc(C)nc(C)n2)c(Cl)cc1C#N` [D-35] are 2 to 5 µM and 10 to 25 µM.
The corresponding values for `CCOC(=O)[C@]1(C)CNc2cc(Cl)c([C@H]3COCCCN3c3cc(C)nc(N)n3)cc2O1` [D-36] are below 0.6 µM and below 1 µM.
In the case of `CCOC(=O)[C@@]1(C)CNc2cc(Cl)c([C@H]3COCCCN3c3cc(C)nc(N)n3)cc2O1` [D-37], the IC50 in assay [1] was 0.6 to 2 µM; in assay [2], at least 25 µM.
Consider `COc1cc([C@H]2COCCCN2c2cc(C)nc(N)n2)c(Cl)cc1OCC#N` [D-38], for which the results for the IC50 in assay [1] and in assay [2] were below 0.6 µM and below 1 µM, respectively.
For `COc1cc(N2CCCOCC2c2cc(C)nc(N)n2)c(Cl)cc1OCC(=O)Nc1ccccc1` [D-39], the 50% inhibitory concentration (IC50) in assay [1] lay in the range of 0.6 to 2 µM; in assay [2], 1 to 10 µM.
Turning to `Cc1cc(N2CCCOCC2c2ncc(CS(C)(=O)=O)cc2Cl)nc(N)n1` [D-40], the concentration for half-maximal inhibition (IC50) in assay [1] was below 0.6 µM; in assay [2], below 1 µM.
Turning to `Cc1cc(N2CCCOC[C@@H]2c2ccc(CS(C)(=O)=O)cc2OC(F)(F)F)nc(N)n1` [D-41], the IC50 in assay [1] was below 0.6 µM; in assay [2], below 1 µM.
The corresponding values for `CCOC(=O)OCc1cc(Cl)c(C2COCCCN2c2cc(C)nc(N)n2)cc1OCC` [D-42] are 0.6 to 2 µM and 1 to 10 µM.
The matching figures for `Cc1cc(N2CCCOCC2c2ncc(CS(C)(=O)=O)cc2F)nc(N)n1` [D-43]: 0.6 to 2 µM and 1 to 10 µM.
The corresponding values for `Cc1cc(N2CCCOC[C@@H]2c2cc(N)c(OC(F)(F)F)cc2Cl)nc(N)n1` [D-45] are below 0.6 µM and below 1 µM.
For the compound `Cc1cc(N2CCCOC[C@@H]2c2ccc(N3CC4(COC4)C3)cc2Cl)nc(N)n1` [I-259, 4-[(3S)-3-[2-chloro-4-(2-oxa-6-azaspiro[3.3]heptan-6-yl)phenyl]-1,4-oxazepan-4-yl]-6-methyl-pyrimidin-2-amine], in assay [3], the IC50 is below 0.3 µM. Also, the EC50 in assay [1] is below 0.6 µM.
On to `Cc1cc(N2CCCOC[C@@H]2c2ccc(N3CC4(CCO4)C3)cc2Cl)nc(N)n1` [I-260, 4-[(3S)-3-[2-chloro-4-(1-oxa-6-azaspiro[3.3]heptan-6-yl)phenyl]-1,4-oxazepan-4-yl]-6-methyl-pyrimidin-2-amine], for which, in assay [3], the IC50 is below 0.3 µM. Also, in assay [1], the EC50 was below 0.6 µM.
The corresponding values for `Cc1cc(N2CCCOC[C@@H]2c2ccc(N3CC(C)(O)C3)cc2Cl)nc(N)n1` [I-261, (S)-1-(4-(4-(2-amino-6-methylpyrimidin-4-yl)-1,4-oxazepan-3-yl)-3-chlorophenyl)-3-methylazetidin-3-ol] are below 0.3 µM and below 0.6 µM.
`CC(=O)N1CC(Nc2ccc([C@H]3COCCCN3c3cc(C)nc(N)n3)c(Cl)c2)C1` [I-262, (S)-1-(3-((4-(4-(2-amino-6-methylpyrimidin-4-yl)-1,4-oxazepan-3-yl)-3-chlorophenyl)amino)azetidin-1-yl)ethan-1-one]: in assay [3], the IC50 is below 0.3 µM. Moreover, the EC50 in assay [1] was below 0.6 µM.
Turning to `Cc1cc(N2CCCOC[C@@H]2c2ccc(NCC3(O)CCC3)cc2Cl)nc(N)n1` [I-263, 1-[[4-[(3S)-4-(2-amino-6-methyl-pyrimidin-4-yl)-1,4-oxazepan-3-yl]-3-chloro-anilino]methyl]-cyclobutanol], in assay [3], the IC50 is below 0.3 µM. The concentration for a half-maximal effect (EC50) in assay [1] is below 0.6 µM.
The matching figures for `Cc1cc(N2CCCOC[C@@H]2c2ccc(NC3(C)COC3)cc2Cl)nc(N)n1` [I-266, 4-[(3S)-3-[2-chloro-4-[(3-methyloxetan-3-yl)amino]phenyl]-1,4-oxazepan-4-yl]-6-methyl-pyrimidin-2-amine]: below 0.3 µM and below 0.6 µM.
As for `Cc1cc(N2CCCOC[C@@H]2c2ccc(N3CCN(C)CC3)cc2Cl)nc(N)n1` [I-275, (S)-4-[3-[2-chloro-4-(4-methylpiperazin-1-yl)phenyl]-1,4-oxazepan-4-yl]-6-methyl-pyrimidin-2-amine], in assay [3], the IC50 lay in the range of 0.3 to 1 µM. Besides, the EC50 in assay [1] is below 0.6 µM.
The corresponding values for `COc1ccc(F)cc1[C@@H]1CCCCCN1c1cc(C)nc(N)n1` [I-285] are 0.3 to 1 µM and 2 to 5 µM.
The corresponding values for `COc1c(F)cccc1C1CCCCCN1c1cc(C)nc(N)n1` (stereo not shown) [I-287] are 0.3 to 1 µM and at least 5 µM.
The corresponding values for `Cc1cc(N2CCCOCC2c2ccc(NC3COC3)cc2Cl)nc(N)n1` (stereo not shown) [I-302] are below 0.3 µM and below 0.6 µM.
Take `COCC(OC)c1ccc(C2COCCCN2c2cc(C)nc(N)n2)c(Cl)c1` (stereo not shown) [I-307]: in assay [3], the IC50 is below 0.3 µM. In addition, the EC50 in assay [1] is below 0.6 µM.
The matching figures for `Cc1cc(N2CCCOCC2c2ccc(NC(=O)C(C)(C)O)cc2Cl)nc(N)n1` (stereo not shown) [I-308]: below 0.3 µM and below 0.6 µM.

Values taken from patent US11440907B1 (Merck Patent GmbH, priority 2018, dated 2022).
